Measurements reported in publication PMC3174345 (Arthritis and rheumatism, 2011).

Experiments:
[1] = system: splenocytes of DR0401-IE mice; assay: 3H-thymidine proliferation recall assay of splenocytes from immunized mice; assay type: cell-based, mouse
[2] = system: DR0401-IE mice; details: mouse, in vivo

Which results are given for “cit-vim59-71: shorter citrullinated vimentin peptide, aa 59-71 (GVYATRSSAVRLR; citrullinated; UniProt P08670 59-71, looked up, fragment)”?
proliferative recall response at 13 weeks ([1]; immunized DR0401-IE mice harvested at week 13 (supplemental fig. 1)): strong proliferative recall response; immunodominant region in in vitro restimulation ([1]; mice immunized with cit-vim59-78, challenge with short peptides at 5 μg/ml, n=13): immunologically dominant region; mice developing signs of ankle swelling or polyarthritis [2]: none
